Measured values: the supplement of paper PMC10307832

What was measured:
Test in all cases: relative viability (nuclei count vs DMSO), 5 days (fraction); higher = more cells survive
Midostaurin = compound: CO[C@@H]1[C@H](N(C)C(=O)c2ccccc2)C[C@H]2O[C@]1(C)n1c3ccccc3c3c4c(c5c6ccccc6n2c5c31)C(=O)NC4 [Midostaurin]
In short: (§1)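 Only plates meeting two conditions passed: control CV below 25% and at least one doubling. Lung cancer cell lines, kept overnight at 37 °C in 1536-well plates, were pinned with five library-drug doses (not always all listed) √10 apart on vehicle-anchored plates and grown 5 days without medium change. A one-step fix, permeabilisation and Hoechst stain preceded 4× imaging and MetaXpress nuclear counting. Viability equals treated-well nuclei divided by vehicle-well nuclei, as the median over plates.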

[1] = compound: COc1cc(-c2nn([C@H]3CC[C@H](N4CCN(C(C)=O)CC4)CC3)c3ncnc(N)c23)ccc1NC(=O)c1cc2ccccc2n1C
In short: as §1

[2] = compound: COc1cc(-c2nn([C@H]3CC[C@H](N4CCN(C(C)=O)CC4)CC3)c3ncnc(N)c23)ccc1NC(=O)c1cc2ccccc2n1C + Cc1nc(Nc2ncc(C(=O)Nc3c(C)cccc3Cl)s2)cc(N2CCN(CCO)CC2)n1 [Dasatinib] (partner 0.075 µM)
In short: (§2)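 Nuclei were stained with Hoechst during a one-step fixation (final 0.05% Triton X-100, 1% formaldehyde, 1 ug/ml Hoechst) carried out 5 days after dosing, then counted on 4× images. The cells, lung cancer lines in 1536-well plates, had been dosed by pin tool the day after seeding with one drug alone or a fixed anchor-drug dose plus five library-drug doses (not always all listed) in √10 steps. Relative viability is the nuclei count in treated wells divided by that in vehicle wells, and each value is the median of duplicate plates.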

Midostaurin + Alpelisib = compound: CO[C@@H]1[C@H](N(C)C(=O)c2ccccc2)C[C@H]2O[C@]1(C)n1c3ccccc3c3c4c(c5c6ccccc6n2c5c31)C(=O)NC4 [Midostaurin] + Cc1nc(NC(=O)N2CCC[C@H]2C(N)=O)sc1-c1ccnc(C(C)(C)C(F)(F)F)c1 [Alpelisib] (partner 2 µM)
In short: as §2

[3] = compound: COc1cc(-c2nn([C@H]3CC[C@H](N4CCN(C(C)=O)CC4)CC3)c3ncnc(N)c23)ccc1NC(=O)c1cc2ccccc2n1C + Nc1nc2[nH]cc(CCc3ccc(C(=O)N[C@@H](CCC(=O)O)C(=O)O)cc3)c2c(=O)[nH]1 [Pemetrexed] (partner 0.2 µM)
In short: as §2

Cell Line | relative viability (Midostaurin; 0.01 µM) | relative viability (Midostaurin; 0.03162 µM) | relative viability (Midostaurin; 0.1 µM) | relative viability (Midostaurin; 0.3162 µM) | relative viability ([1]; 0.0128 µM) | relative viability ([1]; 0.04048 µM) | relative viability ([1]; 0.128 µM) | relative viability ([1]; 1.28 µM) | relative viability ([2]; first compound 0.0128 µM) | relative viability ([2]; first compound 0.04048 µM) | relative viability ([2]; first compound 0.128 µM) | relative viability ([2]; first compound 1.28 µM) | relative viability (Midostaurin + Alpelisib; first compound 0.01 µM) | relative viability (Midostaurin + Alpelisib; first compound 0.03162 µM) | relative viability (Midostaurin + Alpelisib; first compound 0.1 µM) | relative viability (Midostaurin + Alpelisib; first compound 0.3162 µM) | relative viability ([3]; first compound 0.0128 µM) | relative viability ([3]; first compound 0.04048 µM) | relative viability ([3]; first compound 0.128 µM) | relative viability ([3]; first compound 1.28 µM)
COR-L23 | 0.998 | 0.946 | 0.958 | 0.875 | 1.06 | 1.1 | 0.92 | 1.08 | 0.503 | 0.529 | 0.462 | 0.665 | 0.737 | 0.659 | 0.818 | 0.497 | 0.193 | 0.206 | 0.189 | 0.204
COR-L 105 | 0.953 | 0.858 | 0.828 | 0.874 | 0.811 | 1.09 | 0.863 | 0.596 | 0.323 | 0.448 | 0.287 | 0.362 | 1.08 | 0.823 | 0.778 | 1.05 | 1.08 | 1.11 | 1.1 | 0.836
EKVX | 0.991 | 0.886 | 0.95 | 1 | 0.941 | 1.06 | 0.987 | 0.56 | 0.859 | 0.611 | 0.505 | 0.385 | 0.968 | 0.813 | 0.814 | 0.824 | 0.43 | 0.4 | 0.373 | 0.374
EMC-BAC-2 | 0.928 | 0.903 | 0.858 | 0.954 | 1.04 | 1.17 | 0.941 | 0.957 | 0.309 | 0.391 | 0.244 | 0.481 | 0.765 | 0.717 | 0.586 | 0.61 | 0.445 | 0.557 | 0.426 | 0.493
EPLC-272H | 1.04 | 0.944 | 0.93 | 0.969 | 0.906 | 0.873 | 0.963 | 0.865 | 0.407 | – | 0.391 | 0.347 | 0.74 | 0.909 | 1.05 | 1.05 | 0.406 | 0.338 | 0.287 | 0.253
H3255 | 0.971 | 0.948 | 0.876 | 0.966 | 0.996 | 0.962 | 0.946 | 0.763 | 0.345 | 0.313 | 0.434 | 0.307 | 0.724 | 0.7 | 0.698 | 0.7 | 0.628 | 0.567 | 0.578 | 0.489
HARA | 0.98 | 0.87 | 0.974 | 0.932 | 1.03 | 0.828 | 0.879 | 0.612 | 0.259 | 0.21 | 0.269 | 0.236 | 0.794 | 0.795 | 0.724 | 0.864 | 0.213 | 0.233 | 0.216 | 0.184
HCC-15 | 1.05 | 0.902 | 1.05 | 1.05 | 1.21 | 0.785 | 0.971 | 1.06 | 0.638 | 0.593 | 0.684 | 0.731 | 0.944 | 0.838 | 0.954 | 0.925 | 0.227 | 0.228 | 0.198 | 0.225
HCC-78 | 1.01 | 0.814 | 1.03 | 0.606 | 1.06 | 1.06 | 0.912 | 0.567 | 0.375 | 0.401 | 0.234 | 0.24 | 0.413 | 0.305 | 0.358 | 0.296 | 0.939 | 0.879 | 0.889 | 0.91
HCC-366 | 0.913 | 1.03 | 1.02 | 0.955 | 0.995 | 1.04 | 0.977 | 0.916 | 0.711 | 0.517 | 0.667 | 0.607 | 0.331 | 0.297 | 0.318 | 0.323 | 0.141 | 0.24 | 0.208 | 0.232
HCC-827 | 1.02 | 1.04 | 0.972 | 1.04 | 0.98 | 1.03 | 0.957 | 0.753 | 0.311 | 0.313 | 0.281 | 0.275 | 0.984 | 1 | 0.948 | 1.02 | 0.253 | 0.251 | 0.211 | 0.238
HOP-62 | 0.88 | 0.893 | 1.06 | 1.1 | 1.11 | 0.962 | 1.03 | 1.12 | 0.704 | 0.514 | 0.632 | 0.765 | 0.957 | 0.636 | 0.913 | 1.32 | 0.382 | 0.332 | 0.289 | 0.387
LC-2-ad | 0.97 | 0.936 | 0.957 | 0.892 | 1.09 | 0.976 | 0.959 | 0.958 | 0.633 | 0.25 | 0.622 | 0.369 | 0.82 | 0.78 | 0.878 | 0.654 | 0.304 | 0.277 | 0.243 | 0.275
LCLC-97TM1 | 1.02 | 0.867 | 1.06 | 1.17 | 0.943 | 0.879 | 0.946 | 0.931 | 0.97 | 0.348 | 0.789 | 0.697 | 0.251 | – | 0.185 | 0.211 | 0.182 | 0.185 | 0.171 | 0.19
LCLC-103H | 1.05 | 0.922 | 0.979 | 1 | 1.06 | 1.01 | 1 | 1.07 | 0.538 | 0.472 | 0.41 | 0.449 | 0.932 | 0.979 | 1.04 | 1.06 | 0.54 | 0.428 | 0.47 | 0.471
